# Test results as given in patent US4650812A, “4-oxo-3,4-dihydro-2H-1-benzopyranyloxy alkanoic acid derivatives” (Hoffmann-La Roche Inc., priority 1985, dated 1987).
# Where two headings read alike, the source gives them in different places.
# Columns and labels:
# [1] = test system: SRS-A induced constriction of the guinea pig ileum; experiment: Guinea Pig Ileum, In Vitro (SRS-A antagonism); format: cell-based; conditions: Cavia porcellus
# Protocol: (a) Guinea Pig Ileum, In Vitro:
# The guinea pig ileum biassay system has been described by Orange Austen, Adv. Immunol. 10: 105-144 (1969). A 1.5 cm segment is removed from animals weighing 300-400 g and suspended in an organ bath containing 10 ml of Tyrodes solution with 10^-6 M atropine sulfate and 10^-6 M pyrilamine maleate. The bath is maintained at 37° C. and aerated with a mixture of 95% oxygen and 5% carbon dioxide. The SRS-A utilized in this screen is obtained by challenging chopped lung fragments from actively sensitized guinea pigs with egg albumin, in vitro. A dose-response curve to SRS-A challenge is established for the ileum. The dose of SRS-A which given 50% of the maximal contraction (EC50) is then used for subsequent challenge. The drug concentration which inhibits, by 50%, the SRS-A induced constriction of the guinea pig ileum is determined.
# leukotriene E4 = experiment: Guinea Pig Bronchoconstriction, In Vivo (Aerosol) (SRS-A antagonism); set-up: species or system guinea pig (Hartley strain); conditions: leukotriene E4 i.v. challenge; for In vivo-aerosol IC50: 5 min exposure, % (w/v) conc.
# Protocol: (b) Guinea Pig Bronchoconstriction, In Vivo (Aerosol):
# Male guinea pigs (Hartley strain) weighing 300 to 500 g are anesthetized with urethane (2 g/kg) intraperitoneally and a polyetylene cannula is inserted into the jugular vein for drug administration. Tracheal pressure is recorded from a cannula inserted in the trachea and connected to a Statham pressure transducer. After surgical preparation of the animals, a period of time is allowed from pulmonary functions to stabilize. The test compound is administered according to the following protocol. Propanolol (0.1 mg/kg) is administered intravenously while the animals breathed spontaneously. Five minutes thereafter, the animals are exposed for a five minute period to a 1% (w/v) aerosol solution of test compound (adjusted to an alkaline pH where necessary for drug solubilization) or to distilled water of the appropriate pH (for control purposes). A Monaghan (Model 750) ultrasonic nebulizer is used to administer all test compounds by inhalation. The nebulizer ultrasonic frequency is adjusted to produce particles in the 1-8μ diameter range (average 3μ). Aqueous solutions are prepared freshly and introduced into the chamber of the nebulizeer. The output of the nebulizer is made available to the animal by directing a bias flow of aerosol through a Y tube connected to the tracheal cannula. At the end of the exposure period, the animals are paralyzed with succinylcholine (1.2 mg/kg, i.v.) and mechanically respirated (Harvard rodent respirator) at 40 breaths/minute and 2.5 cc tidal volume. […]
# The change (cm H2 O) between pre and peak ventilatory pressure readings averaged for three control animals and five drug treated animals. The percent inhibition is calculated from the following formula: [formula] When various drug concentrations are tested, the percent inhibition at each concentration is plotted as log concentration (abscissa) versus percent inhibition (ordinate) and the IC50 is determined from linear regression analysis.
# LTD4 = experiment: Oral Testing of Leukotriene Antagonists (guinea pig, SRS-A antagonism); format: in vivo, guinea pig (Hartley strain, Charles River); conditions: 10 mg/kg P.O., two hours prior to challenge with leukotriene
# Protocol: (c) Oral Testing of Leukotriene Antagonists
# Male guinea pigs (Hartley strain, Charles River) weighing 400 to 600 g were anesthetized with urethane (2 g/kg) intraperitoneally and a polyethylene cannula was inserted into the jugular vein for intravenous drug administration. Tracheal pressure (cm water) was recorded from a Statham pressure transducer. After surgical preparation of the animals, a period of time was allowed for spontaneous breathing to stabilize. […] Two minutes later, spontaneous breathing was arrested with succinylcholine chloride (1.2 mg/kg, i.v.) and the animals ventilated with a Harvard (Model #680) small animal respirator set at 40 breaths per minute and 4.0 cc stroke volume. The animals were challenged with a maximum constrictory dose of either leukotriene C4 or leukotriene D4 or leukotriene E4 ([…], i.v.) at 5 minutes. Control vehicle or test drug (adjusted to an alkaline pH where necessary for drug solubilization) was administered (10 mg/kg, p.o) two hours prior to challenge with leukotriene. In order to determine the ID50 for a test drug, the dose is varied from 10 mg/kg, p.o. to 100, 50, 30, 20, 5, 3 and 1 mg/kg. p.o.
# In order to determine oral duration of action, the time between exposure to test drug and challenge with leukotriene is varied.
# In test procedure (c), the compounds listed in Table III were tested by this oral procedure, and the results obtained are also set out in Table III.
# [2] = SRS-A challenge at EC50, Table I, read-out: In vitro G.P. ileum IC50
SMILES,"IC50 [1, 2]",other results
"CCCc1c(OCCCCCCC2CC(=O)c3ccc(OCC(=O)O)c(CCC)c3O2)ccc(C(C)=O)c1O (racemic) [rac.-[[2-[6-(4-acetyl-3-hydroxy-2-propylphenoxy)hexyl]-3,4-dihydro-4-oxo-8-propyl-2H-1-benzopyran-7-yl]oxy]acetic acid]",300 nM,In vivo-aerosol IC50 (leukotriene E4): 0.32%
"CCCc1c(OCCCCC2(C)CC(=O)c3ccc(OCC(=O)OC)c(CCC)c3O2)ccc(C(C)=O)c1O (racemic) [rac.-[[2-[4-(4-acetyl-3-hydroxy-2-propylphenoxy)butyl]-3,4-dihydro-2-methyl-4-oxo-8-propyl-2H-1-benzopyran-7-yl]oxy]acetic acid methyl ester]",,% Inhib. of LTD4 (LTD4): 25 ± 12%
"CCCc1c(OCC(O)Cc2ccc3c(=O)cc(C(=O)O)oc3c2CCC)ccc(C(C)=O)c1O (centres unmarked) [7-[3-(4-acetyl-3-hydroxy-2-propylphenoxy)-2-hydroxypropyl]-4-oxo-8-propyl-4H-1-benzopyran-2-carboxylic acid, reference compound]",,"IC50 ([1]; SRS-A challenge at EC50, read-out: IC50 of the standard SRS-A antagonist): 35 nM"
"CCCc1c(OCCCCC2(C)CC(=O)c3ccc(OCCCC(=O)OCC)c(CCC)c3O2)ccc(C(C)=O)c1O (racemic) [rac.-4-[2-[4-(4-acetyl-3-hydroxy-2-propylphenoxy)butyl]-3,4-dihydro-2-methyl-4-oxo-8-propyl-2H-1-benzopyran-7-yl]oxy]butanoic acid ethyl ester]",,% Inhib. of LTD4 (LTD4): 38 ± 7%
"CCCc1c(OCCCCC2(C)CC(=O)c3ccc(OCC(=O)OC)cc3O2)ccc(C(C)=O)c1O (racemic) [rac.-[[2-[4-(4-acetyl-3-hydroxy-2-propylphenoxy)butyl]-3,4-dihydro-2-methyl-4-oxo-2H-1-benzopyran-7-yl]oxy]acetic acid methyl ester]",,% Inhib. of LTD4 (LTD4): 47 ± 5%

# The next lines start with results.
"IC50 [1, 2]",SMILES,other results
2000 nM,"CCCc1c(OCCCCC2(C)CC(=O)c3ccc(OCC(=O)O)c(CCC)c3O2)ccc(C(C)=O)c1O (racemic) [rac.-[2-[4-(4-acetyl-3-hydroxy-2-propylphenoxy)butyl]-3,4-dihydro-2-methyl-4-oxo-8-propyl-2H-1-benzopyran-7-yl]oxy]acetic acid]",
500 nM,"CCCc1c(OCCCCCCC2(C)CC(=O)c3ccc(OCC(=O)O)c(CCC)c3O2)ccc(C(C)=O)c1O (racemic) [rac.-[[2-[6-(4-acetyl-3-hydroxy-2-propylphenoxy)hexyl]-3,4-dihydro-2-methyl-4-oxo-8-propyl-2H-1-benzopyran-7-yl]oxy]acetic acid]",In vivo-aerosol IC50 (leukotriene E4): 0.26%
3000 nM,"CCCc1c(OCCCCC2(C)CC(=O)c3ccc(OCCCC(=O)O)cc3O2)ccc(C(C)=O)c1O (racemic) [rac.-4-[[2-[4-(4-acetyl-3-hydroxy-2-propylphenoxy)butyl]-3,4-dihydro-2-methyl-4-oxo-2H-1-benzopyran-7-yl]oxy]butanoic acid]",
1000 nM,"CCCc1c(OCCCCC2(C)CC(=O)c3ccc(OCCCC(=O)O)c(CCC)c3O2)ccc(C(C)=O)c1O (racemic) [rac.-4-[[2-[4-(4-acetyl-3-hydroxy-2-propylphenoxy)butyl]-3,4-dihydro-2-methyl-4-oxo-8-propyl-2H-1-benzopyran-7-yl]oxy]butanoic acid]",
5000 nM,"CCCc1c(OCCCCC2(C)CC(=O)c3ccc(OCC(=O)O)cc3O2)ccc(C(C)=O)c1O (racemic) [rac.-[[2-[4-(4-acetyl-3-hydroxy-2-propylphenoxy)butyl]-3,4-dihydro-2-methyl-4-oxo-2H-1-benzopyran-7-yl]oxy]acetic acid]",
500 nM,"CCCc1c(OCCCCC2CC(=O)c3ccc(OCC(=O)O)c(CCC)c3O2)ccc(C(C)=O)c1O (racemic) [rac.-[[2-[4-(4-acetyl-3-hydroxy-2-propylphenoxy)butyl]-3,4-dihydro-4-oxo-8-propyl-2H-1-benzopyran-7-yl]oxy]acetic acid]",In vivo-aerosol % inhib. at (% conc.) (leukotriene E4; at 0.1 % conc.): 34.1 ± 8%
